Measured values published in patent publication US10815276B2, “Cell penetrating peptides and methods of making and using thereof” (Entrada Therapeutics, Inc., priority 2014, dated 2020).
Starred links: 1 amine or outer side, 2 acyl side, 3 side chain; linkers in the order of their positions; H or OH if unused. Positions of bridges follow the written chain, without caps; N, C: chain ends. Non-standard residues stand in square brackets, D forms with d. Residues, ends and D or L forms follow the SMILES beside them. Trimesoyl = O=C(c1cc(C(=O)[*:2])cc(C(=O)[*:3])c1)[*:1]; d(pT) = C[C@H](OP(=O)(O)O)[C@@H](N)C(=O)O; 2Nal = N[C@@H](Cc1ccc2ccccc2c1)C(=O)O; Pip = O=C(O)[C@@H]1CCCCN1; Dap = NC[C@H](N)C(=O)O; Sar = CNCC(=O)O

How the values were obtained:
[1] = test system: mouse ventricular cardiac myocytes; experiment: Live-cell confocal microscopy of cardiomyocytes; assay type: cell-based; conditions: 5 μM peptide or 6 μM conjugate, 3 h
Protocol: FIGS. 35A, 35B, 35C, and 35D display live cell confocal images of mouse ventricular cardiac myocytes after treatment for 3 h with 5 μM c(FΦRRRRQ)-K(FITC) (FIG. 35A) and c(fΦRrRrQ)-K(FITC) (FIG. 35B).
The disclosed cyclic CPPs are very effective in delivering proteins into cardiomyocytes. Fluorescein isothiocyanate (FITC)-labeled cyclic CPPs [c(FΦRRRRQ)-K(FITC)-NH2 and c(fΦRrRrQ)-K(FITC)-NH2] were synthesized and their internalization into mouse ventricular cardiac myocytes was tested by treating the cells with 5 μM FITC-labeled peptide for 3 h. After washing away the extracellular peptides, the internalization of CPPs was examined by fluorescent live-cell confocal microscopy. […] Whether the cyclic CPPs are capable of transporting full-length proteins into cardiac muscle cells was tested. Calmodulin (with an engineered Thr5Cys), a multifunctional calcium-binding messenger protein, was conjugated to c(FΦRRRRQ)-C-NH2 at the Cys residue near N-terminus through a disulfide bond. The disulfide exchange reaction is highly specific, efficient, and reversible. Further, upon entering the cytosol of cells, the disulfide linkage is expected to be reduced to release the native protein (FIG. 35c). The CPP-protein conjugate was chemically labeled on amino-groups with cyanine3, which permits visualization of the internalized calmodulin. […]

Pin1 [2] = target: T1, Pin1 (Homo sapiens, UniProt Q13526, S16A/Y23A); experiment: Fluorescence anisotropy binding to Pin1
T1 construct: The full-length human S16A/Y23A mutant Pin1 was expressed and purified from E. coli; made in house
T1 sequence (Q13526 whole entry S16A/Y23A): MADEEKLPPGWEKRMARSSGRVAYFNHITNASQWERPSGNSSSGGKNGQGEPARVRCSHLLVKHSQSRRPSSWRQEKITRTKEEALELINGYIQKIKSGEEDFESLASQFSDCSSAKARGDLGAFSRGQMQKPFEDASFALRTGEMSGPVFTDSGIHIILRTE
Protocol: The gene coding for the catalytic domain of PTP1B (amino acids 1-321) was amplified by the polymerase chain reaction using PTP1B cDNA as template and oligonucleotides 5′-[…]-3′ and 5′-[…]-3′ as primers. […] Expression and purification of the ybbR-tagged PTP1B were carried out as previously described (Ren, L et al. Biochemistry 2011, 50, 2339-2356). […] The reaction mixture was passed through a G-25 fast-desalting column equilibrated in 30 mM HEPES, pH 7.4, 150 mM NaCl to remove any free dye molecules. The full-length human S16A/Y23A mutant Pin1 was expressed and purified from E. coli as previously described (Liu, T et al. J. Med. Chem. 2010, 53, 2494-2501).
FA experiments were carried out by incubating 100 nM FITC-labeled peptide with varying concentrations of protein in 20 mM HEPES (pH 7.4), 150 mM NaCl, 2 mM magnesium acetate, and 0.1% bovine serum albumin (BSA) for 2 h at room temperature. The FA values were measured on a Molecular Devices Spectramax M5 plate reader, with excitation and emission wavelengths at 485 and 525 nm, respectively. Equilibrium dissociation constants (KD) were determined by plotting the FA values as a function of protein concentration and fitting the curve to the following equation:
(§1) [formula] where Y is the FA value at a given protein concentration x, L is the peptide concentration, Qb/Qf is the correction factor for fluorophore-protein interaction, Amax is the maximum FA value when all of the peptides are bound to protein, while Amin is the minimum FA value when all of the peptides are free. FA competition assay was performed by incubating 100 nM FITC-labeled Pin1 inhibitor 5 with 1 μM Pin1, followed by the addition of 0-5 μM unlabeled inhibitor. The FA values were measured similarly on a pate reader. IC50 values were obtained by plotting the FA values against the competitor concentration and curve fitting using the four-parameter dose-response inhibition equation (Prism 6, GraphPad).

Pin1 [3] = target: T1, Pin1; experiment: FA competition with FITC-labeled inhibitor 5; assay type: binding; conditions: 0.1 μM labeled inhibitor 5, 1 μM Pin1
Protocol: FIGS. 32A and 32B display the competition for binding to Pin1 by inhibitors 5 and 7. Each reaction contained 0.1 μM FITC-labeled inhibitor 5, 1 μM Pin1, and 0-5 μM unlabeled inhibitor 5 […] or inhibitor 7 (FIG. 32B) and the FA value was measured and plotted against the competitor concentration.
as §1

HeLa cells [4] = experiment: MTT proliferation assay with Pin1 inhibitors; assay type: cell-based, human; conditions: 3-day treatment at 20 μM
Protocol: HeLa cells (100 μL/each well, 5×10^4 cells/mL) were seeded in a 96-well culture plate and allowed to grow overnight in DMEM supplemented with 10% FBS. […] After that, 10 μL of a MTT stock solution (5 mg/mL) was added into each well. The plate was incubated at 37° C. for 4 h and 100 μL of SDS-HCl solubilizing solution was added into each well, followed by thorough mixing. The plate was incubated at 37° C. overnight and the absorbance of the formazan product was measured at 570 nm on a Molecular Devices Spectramax M5 plate reader. Each experiment was performed in triplicates and the cells untreated with peptide were used as control.

HeLa cells [5] = experiment: Cellular uptake by flow cytometry; assay type: cell-based, human; conditions: 5 μM FITC-labeled peptide, 2 h
Protocol: The cellular uptake efficiency of peptide 37, peptide 1, and a previously reported membrane-impermeable monocyclic Pin1 inhibitor (Table 18, peptide 46) was assessed by incubating HeLa cells with the FITC-labeled peptides (5 μM) for 2 h and quantifying the total intracellular fluorescence by flow cytometry analysis. […] By contrast, cells treated with peptides 1 and 37 gave MFI values of 2562 and 8792, respectively. Thus, peptide 37 is internalized by HeLa cells ˜4-fold more efficiently than peptide 1. Presumably, the negative charged phosphate group of peptide 1 interacted electrostatically with the positively charged CPP motif and reduced the cellular uptake efficiency of the latter.

HeLa cells [6] = experiment: Western blot of PML protein level; assay type: cell-based, human; conditions: 5 μM
Protocol: FIGS. 38A, 38B, 38C, and 38D display cellular activity of peptide 37. (FIG. 38A) Cellular uptake of peptides 1, 37, and 46 (5 μM) by HeLa cells as analyzed by flow cytometry. MFI, mean fluorescence intensity; none, untreated cells (no peptide). (FIG. 38B) Anti-proliferative effect of peptides 37, 46, and 47 on HeLa cells as measured by MTT assay. (FIG. 38C) Western blots showing the effect of peptides 1, 37 and 47 on the protein level of PML in HeLa cells. β-Actin was used as loading control. (FIG. 38D) Quantification of western blot results from (FIG. 38C). Data reported were after background subtraction and represent the mean±SD from 3 independent experiments.
Finally, to ascertain that Pin1 is the molecular target of peptide 37 in vivo, the intracellular protein level of a well-established Pin1 substrate, […] (PML), was examined by western blot analysis. Pin1 negatively regulates the PML level in a phosphorylation-dependent manner and inhibition of Pin1 activity is expected to stabilize PML and increase its intracellular level. […] The effect was already significant at 0.2 μM inhibitor (1.8-fold increase in the PML level) and plateaued at ˜1 μM (3.3-fold increase). Again, bicyclic peptide 47 had no effect under the same conditions, while peptide 1 (the positive control, at 5 μM) increased the PML level by 3.1-fold.

HeLa cells [7] = conditions: read-out: IC50 of HeLa cell growth; MTT
Description: The effect of peptide 37 on the growth of HeLa cells was examined by using the MTT cell viability assay.

| Compound | Internalization into cardiac muscle cells (confocal) [1] | Improvement of inhibitor potency vs peptide 6 (Pin1 [2]) | Kd (Pin1 [2]; FITC-labeled peptide, FA analysis) | Competition with FITC-labeled inhibitor 5 for binding to Pin1 (Pin1 [3]) | Inhibition of cell growth (HeLa cells [4]) | Mean fluorescence intensity (MFI) (HeLa cells [5]) | Increase in the PML level (HeLa cells [6]) | IC50 (HeLa cells [7]) |
| --- | --- | --- | --- | --- | --- | --- | --- | --- |
| c(fΦRrRrQ)-K(FITC)-NH2 | efficient internalization | – | – | – | – | – | – | – |
| C[C@@H]1NC(=O)[C@H](CCCNC(=N)N)NC(=O)[C@H](Cc2ccc3ccccc3c2)NC(=O)[C@@H]2CCCCN2C(=O)[C@@H]([C@H](C)OP(=O)(O)O)NC(=O)CN(C)C(=O)[C@@H](C)NC(=O)c2cc3cc(c2)C(=O)NC[C@H](NC(=O)[C@@H](C)NC1=O)C(=O)N[C@@H](Cc1ccccc1)C(=O)N[C@@H](Cc1ccc2ccccc2c1)C(=O)N[C@@H](CCCNC(=N)N)C(=O)N[C@@H](CCCNC(=N)N)C(=O)N[C@@H](CCCNC(=N)N)C(=O)N[C@@H](CCCNC(=N)N)C(=O)N[C@H](C(=O)N[C@@H](CCCCN)C(N)=O)CNC3=O [Peptide 1, bicyclo[Tm-(D-Ala-Sar-D-pThr-Pip-Nal-Arg-Ala-D-Ala)-Dap-(Phe-Nal-Arg-Arg-Arg-Arg-Dap)]-Lys] ([dA][Sar][d(pT)][Pip][2Nal]RA[dA][Dap]F[2Nal]RRRR[Dap]K-NH2; linker N-9-16 via Trimesoyl) | – | ~2 fold | 72 nM | competed | 45% | 2562 | 3.1 fold | 1800 nM |
